The target of the experiment is GST tagged truncated human mutant G2019S LRRK2 (Homo sapiens (Human), UniProt Q5S007, G2019S). Kind of experiment: LRRK2 Km ATP LanthaScreen Assay. It counts as biochemical. To be noted: 134 μM ATP (Km ATP), LRRKtide substrate, negative log of mean IC50 (molar). As to the method: Unless otherwise noted, all reactions are magnetically stirred. Unless otherwise noted, when diethyl ether is used in the experiments described below, it is Fisher ACS certified material and is stabilized with BHT. Unless otherwise noted, “concentrated” and/or “solvent removed under reduced pressure” means evaporating the solvent from a solution or mixture using a rotary evaporator or vacuum pump. Unless otherwise noted, flash chromatography is carried out on a Teledyne Isco (Lincoln, NE), Analogix (Burlington, WI), or Biotage (Stockholm, SWE) automated chromatography system using a commercially available cartridge as the column. Columns may be purchased from Teledyne Isco, Analogix, Biotage, Varian (Palo Alto, CA), or Supelco (Bellefonte, PA) and are usually filled with silica gel as the stationary phase. Reversed phase preparative HPLC conditions, where used, can be found at the end of each experimental section. Aqueous solutions were concentrated on a Genevac (Ipswich, ENG) or by freeze-drying/lyophilization. Unless otherwise noted, all LRRK2 pIC50 data presented in tables refers to the LRRK2 G2019S Km ATP LanthaScreen™ assay (Life Technologies Corp., Carlsbad, CA) that is described in the Biological Assay section.
GST tagged truncated human mutant G2019S LRRK2, sequence (Q5S007 970-2527 G2019S): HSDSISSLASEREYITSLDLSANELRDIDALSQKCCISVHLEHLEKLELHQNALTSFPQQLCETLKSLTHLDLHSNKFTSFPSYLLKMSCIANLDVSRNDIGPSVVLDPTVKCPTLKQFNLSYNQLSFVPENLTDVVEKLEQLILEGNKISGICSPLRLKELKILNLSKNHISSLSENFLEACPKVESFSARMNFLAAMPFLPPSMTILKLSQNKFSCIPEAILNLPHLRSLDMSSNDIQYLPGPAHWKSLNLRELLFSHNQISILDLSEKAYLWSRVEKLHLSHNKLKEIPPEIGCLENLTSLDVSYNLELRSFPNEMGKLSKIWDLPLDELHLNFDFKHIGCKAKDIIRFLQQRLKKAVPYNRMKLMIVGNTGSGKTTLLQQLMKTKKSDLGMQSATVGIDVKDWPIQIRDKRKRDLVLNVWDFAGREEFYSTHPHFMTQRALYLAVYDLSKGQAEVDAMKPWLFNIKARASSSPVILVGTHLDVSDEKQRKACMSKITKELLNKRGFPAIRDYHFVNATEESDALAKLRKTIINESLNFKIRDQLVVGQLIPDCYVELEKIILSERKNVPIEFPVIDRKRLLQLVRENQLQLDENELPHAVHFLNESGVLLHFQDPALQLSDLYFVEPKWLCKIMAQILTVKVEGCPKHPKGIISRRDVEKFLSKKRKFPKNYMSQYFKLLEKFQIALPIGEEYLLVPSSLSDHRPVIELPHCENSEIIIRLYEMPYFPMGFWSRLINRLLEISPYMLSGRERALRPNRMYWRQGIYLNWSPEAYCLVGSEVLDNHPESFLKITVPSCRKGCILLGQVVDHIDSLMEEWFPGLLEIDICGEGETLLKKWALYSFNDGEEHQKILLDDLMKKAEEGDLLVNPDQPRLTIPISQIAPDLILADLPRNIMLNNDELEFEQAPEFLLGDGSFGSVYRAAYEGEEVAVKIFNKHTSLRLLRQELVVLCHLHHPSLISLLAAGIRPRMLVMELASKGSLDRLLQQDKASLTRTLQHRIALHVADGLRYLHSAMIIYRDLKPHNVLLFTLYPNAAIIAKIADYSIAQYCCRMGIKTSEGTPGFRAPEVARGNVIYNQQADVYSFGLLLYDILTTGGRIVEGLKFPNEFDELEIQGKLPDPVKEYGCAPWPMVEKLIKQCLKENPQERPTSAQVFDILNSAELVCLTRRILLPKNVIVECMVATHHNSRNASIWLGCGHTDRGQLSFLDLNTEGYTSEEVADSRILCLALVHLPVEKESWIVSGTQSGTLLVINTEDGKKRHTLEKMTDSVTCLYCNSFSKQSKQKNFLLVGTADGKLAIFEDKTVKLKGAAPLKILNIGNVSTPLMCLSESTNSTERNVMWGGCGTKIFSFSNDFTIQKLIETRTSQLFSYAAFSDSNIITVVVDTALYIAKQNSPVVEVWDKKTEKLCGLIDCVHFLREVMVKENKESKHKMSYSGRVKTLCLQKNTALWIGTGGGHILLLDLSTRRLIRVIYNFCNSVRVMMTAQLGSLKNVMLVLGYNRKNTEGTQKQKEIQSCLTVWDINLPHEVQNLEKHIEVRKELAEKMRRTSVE
Biological Assay: LRRK2 Km ATP LanthaScreen™ Assay
Compound potency against LRRK2 kinase activity was determined using LanthaScreen™ technology from Life Technologies Corporation (Carlsbad, CA) using a GST20 tagged truncated human mutant G2019S LRRK2 in the presence of the fluorescein-labeled peptide substrate LRRKtide® (LRRK2 phosphorylated ezrin/radixin/moesin (ERM)), also from Life Technologies. The data presented for the Km ATP LanthaScreen™ Assay represents mean IC50 values based on several test results and may have reasonable deviations depending on the specific conditions and reagents used. Km is the Michaelis constant of an enzyme and is defined as the concentration of native substrate (ATP for a kinase) which permits the enzyme to achieve half Vmax (Vmax=rate of reaction when the enzyme is saturated with substrate). IC50 (half-maximal inhibitory concentration) represents the concentration of inhibitor required to inhibit LRRK2 kinase activity by 50%. Assays were performed in the presence of 134 μM ATP (Km ATP). Upon completion, the assay was stopped, and phosphorylated substrate detected with a terbium (Tb)-labeled anti-pERM antibody (cat. no. PV4898). The compound dose response was prepared by diluting a 10 mM stock of compound to a maximum concentration of 9.99 μM in 100% DMSO, followed by custom fold serial dilution in DMSO nine times. 20 nL of each dilution was spotted via a Labcyte Echo onto a 384-well black-sided plate (Corning 3575) followed by 15 μL of a 1.25 nM enzyme solution in 1× assay buffer (50 mM Tris pH 8.5, 10 mM MgCl2, 0.01% Brij-35, 1 mM EGTA, 2 mM dithiothreitol, 0.05 mM sodium orthovanadate). Following a 15-min incubation period at rt, the kinase reaction was started with the addition of 5 μL of 400 nM fluorescein-labeled LRRKtide® (LRRK2 phosphorylated ezrin/radixin/moesin (ERM)) peptide substrate and 134 μM ATP solution in 1× assay buffer. The reaction was allowed to progress at ambient temperature for 90 min. The reaction was then stopped by the addition of 20 μL of TR-FRET Dilution Buffer (Life Technologies, Carlsbad, CA) containing 2 nM Tb-labeled anti-phospho LRRKtide® (LRRK2 phosphorylated ezrin/radixin/moesin (ERM)) antibody and 10 mM EDTA (Life Technologies, Carlsbad, CA). After an incubation period of 1 h at rt, the plate was read on an EnVision® multimode plate reader (Perkin Elmer, Waltham, MA) with an excitation wavelength of 337 nm (Laser) and a reading emission at both 520 and 495 nm. Compound IC50 values were interpolated from nonlinear regression best-fits of the log of the final compound concentration, plotted as a function of the 520/495-nm emission ratio using activity base “Abase”). Abase uses a 4 parameter (4P) logistic fit based on the Levenberg-Marquardt algorithm. […]
Background: TR-FRET usually uses a lanthanide donor and a delayed reading to cut background.
Regarding `O=C(Nc1cnn(-c2ccncc2)c1)c1coc(-c2cn[nH]c2)n1` [Example 1-21, 2-(1H-pyrazol-4-yl)-N-(1-pyridin-4-yl-1H-pyrazol-4-yl)-1,3-oxazole-4-carboxamide], the “LRRK2 pIC50” value was determined as 7.18.
To `COc1nn(C2CCC2)cc1NC(=O)c1csc(-c2cn[nH]c2)n1` [Example 1-22, N-(1-cyclobutyl-3-methoxy-1H-pyrazol-4-yl)-2-(1H-pyrazol-4-yl)-1,3-thiazole-4-carboxamide] belongs 7.76.
Turning to `Cc1nn(C(C2CC2)C2CC2)cc1NC(=O)c1csc(-c2cn[nH]c2)n1` [Example 1-23, N-[1-(dicyclopropyl-methyl)-3-methyl-1H-pyrazol-4-yl]-2-(1H-pyrazol-4-yl)-1,3-thiazole-4-carboxamide], the “LRRK2 pIC50” value is reported as 6.59.
For `O=C(Nc1cnn(-c2ccccc2)c1)c1csc(-c2cn[nH]c2)n1` [Example 1-24, N-(1-phenyl-1H-pyrazol-4-yl)-2-(1H-pyrazol-4-yl)-1,3-thiazole-4-carboxamide] the value was 7.56.
For the compound `O=C(Nc1cnn(C2CC2)c1)c1csc(-c2cn[nH]c2)n1` [Example 1-25, N-(1-cyclopropyl-1H-pyrazol-4-yl)-2-(1H-pyrazol-4-yl)-1,3-thiazole-4-carboxamide], the “LRRK2 pIC50” value turned out to be 7.65.
For `Cn1cc(NC(=O)c2csc(-c3cn[nH]c3)n2)c(OCC(F)F)n1` [Example 1-26, N-[3-(2,2-difluoroethoxy)-1-methyl-1H-pyrazol-4-yl]-2-(1H-pyrazol-4-yl)-1,3-thiazole-4-carboxamide] the value was 7.56; for `CSCC1(Cn2cc(NC(=O)c3csc(-c4cn[nH]c4)n3)cn2)CCC1` [Example 1-27, N-[1-({1-[(methylsulfanyl)methyl]cyclobu-tyl}methyl)-1H-pyrazol-4-yl]-2-(1H-pyrazol-4-yl)-1,3-thiazole-4-carboxamide], 7.77; for `COc1nn(Cc2nnc3n2CCCCC3)cc1NC(=O)c1csc(-c2cn[nH]c2)n1` [Example 1-28, N-[3-methoxy-1-(6,7,8,9-tetrahydro-5H-[1,2,4]triazolo[4,3-a]azepin-3-ylmethyl)-1H-pyrazol-4-yl]-2-(1H-pyrazol-4-yl)-1,3-thiazole-4-carboxamide], 6.95.
To `COCC1(Cn2cc(NC(=O)c3csc(-c4cn[nH]c4)n3)cn2)CCC1` [Example 1-29, N-(1-{[1-(methoxymethyl)cyclobutyl]methyl}-1H-pyrazol-4-yl)-2-(1H-pyrazol-4-yl)-1,3-thiazole-4-carboxamide] belongs 7.82; to `Cn1cc(NC(=O)c2csc(-c3cn[nH]c3)n2)c(Oc2ccccc2)n1` [Example 1-30, N-(1-methyl-3-phenoxy-1H-pyrazol-4-yl)-2-(1H-pyrazol-4-yl)-1,3-thiazole-4-carboxamide], 7.78; to `Cn1cc(-c2nn(C)cc2NC(=O)c2csc(-c3cn[nH]c3)n2)cn1` [Example 1-31, N-(1,1′-dimethyl-1H,1′H-3,4′-bipyrazol-4-yl)-2-(1H-pyrazol-4-yl)-1,3-thiazole-4-carboxamide], 7.95.
Regarding `CC1(C)CC(Cn2cc(NC(=O)c3csc(-c4cn[nH]c4)n3)cn2)C1` [Example 1-32, N-{1-[(3,3-dimethylcyclobu-tyl)methyl]-1H-pyrazol-4-yl}-2-(1H-pyrazol-4-yl)-1,3-thiazole-4-carboxamide], the “LRRK2 pIC50” value came to 8.00.
For `O=C(Nc1cnn(C2CCC2)c1)c1coc(-c2cn[nH]c2)n1` [Example 1-33, N-(1-cyclobutyl-1H-pyrazol-4-yl)-2-(1H-pyrazol-4-yl)-1,3-oxazole-4-carboxamide] the value was 7.13.
Regarding `CC1(Cn2cc(NC(=O)c3csc(-c4cn[nH]c4)n3)cn2)CCC1` [Example 1-34, N-{1-[(1-methylcyclobu-tyl)methyl]-1H-pyrazol-4-yl}-2-(1H-pyrazol-4-yl)-1,3-thiazole-4-carboxamide], the “LRRK2 pIC50” value came out at 7.92.

These data come from patent US20240174679A1, “HETEROAROYL AMIDES AS LRRK2 INHIBITORS, PHARMACEUTICAL COMPOSITIONS, AND USES THEREOF” (MERCK SHARP & DOHME LLC, priority 2021, published 2024).
